Results on eleven molecules are retold here after US20230241000A1, “GSK3 INHIBITOR-LOADED NANO FORMULATIONS AS A CANCER IMMUNOTHERAPEUTIC” (The Regents of the University of California, priority 2020, published 2023).

“Also recorded” adds a separate entry of the source. Like-named read-outs stand apart in the source and are kept apart here.

A short description of data set [1]: Remote loading of GSK3 inhibitors into silicasomes: encapsulation efficiency and loading capacity. The settings on record: for encapsulation efficiency in silicasomes (in words): remote loading at 5, 10 or 20 feed weight %. The format is physicochemical. How it is done: The overall scheme for the synthesis of silicasome carriers to deliver GSK3 inhibitors is outlined in FIG. 3. Briefly, a large batch (i.e. 120 g) synthesis of bare particles was carried out as previously, yielding ˜70 nm MSNPs (FIG. 3, panel A) (22). […] 20 mg soaked-in MSNPs were then used together with an ethanol suspended lipid solution, comprised of a mixture of 60 mg DSPC:Cholesterol:PE-PEG2000 (molar ratio of 6:4:0.3), for coating with a lipid bilayer by a flow through sonication procedure (FIG. 3, panel B). Following the removal of the non-encapsulated trapping agent, AZD2858, AZD1080, LY2090314, and 1-Azakenpaullone were dissolved in 0.9% saline and incubated with the silicasome carrier to assess the loading capacity in response to different feed weight percentages (FIG. 11).
Four GSK3 inhibitor-laden silicasome formulations were analyzed to assess encapsulation efficiency and loading capacity. 100 μL of the silicasomes suspension at 10 mg/mL in 0.9% NaCl (1 mg silicasomes) was added to AZD1080, AZD2858, LY2090314, and 1-azakenpaullone solutions, which were prepared by adding 50, 100 or 200 μg of each inhibitor to 900 μL water. These drug mass quantities provided feed weight percentages of 5, 10, and 20%, in comparison to the silicasome mass. Following execution of the remote loading procedure as detailed above, the crude solutions were used to assess absorbance in a glass bottom 96-well plate (Total Drug Absorbance). Silicasomes were centrifuged at 21,000×g for 15 minutes to pellet the particles. After removal of the supernatant, the silicasomes were re-suspended in aa fresh 0.9% NaCl solution. This was repeated three times to remove any unloaded inhibitor. The silicasome solution was then sampled and absorbance was measured to determine Loaded Drug Absorbance. Concentration-matched unloaded ‘blank’ silicasomes also had absorbance measured (Silicasome Blank Absorbance). Encapsulation efficiency was calculated by the following formula: […]
All measurements were taken using a SpectraMax M5 plate reader (Molecular Devices). All solutions were diluted 1/10 in 0.9% NaCl solution prior to absorbance reads. The absorbances used for each compound were: 418 nm for AZD1080, 383 nm for AZD2858, 213 nm for LY2090314, and 334 nm for 1-azakenpaullone.

In another data set the test system is GSK3. As to conditions: cited from earlier work.
For data set [2] the following is noted: Phase 2 candidate, trial abandoned; literature (54); cited from earlier work.
The next data set relates to Pdcd1 expression. In words: RT-qPCR of Pdcd1 in anti-CD3 activated primary murine T-cells. The format is cell-based, C57BL/6 mouse. The settings on record: 10 μM, 72 hours, normalized against Gapdh. How it is done: (§1) This is compatible with the translational expression of T-bet, a transcription factor that interferes in PD-1 expression (FIG. 1, panel B).
(§2) Wells of a 96-well tissue culture plate were coated with anti-mouse CD3 antibody (Ultra-LEAF, Biolegend). 7.5 μL of 1 mg/mL antibody solution was diluted in 1 mL of 1×PBS, before 50 μL of the dilution was added to each plate well for 2 hours at 37° C. The wells were then thoroughly washed 3× with 1×PBS.
(§3) T-cells were extracted from C57BL/6 mouse spleens, using a standard procedure with minor modifications (71). Two mouse spleens were mechanically disrupted and the released cells were passed through a 70 μm filter. Red blood cells were lysed using RBC lysis buffer (eBioscience) at 4° C. for 5 minutes. 10 mL of 1×PBS was added to stop the lysis process, following which cells were pelleted at 300×g for 5 minutes. […]
(§4) Cells were collected and RNA was extracted using Direct-zol RNA MiniPrep Plus kits (Zymo), as per the manufacturer's instructions. Extracted RNA was converted into cDNA using SuperScript III First-Strand Synthesis System kits (Invitrogen). cDNA from treated T-cells was analyzed by RT-PCR using a LightCycler 480 instrument (Roche) and the LightCycler 480 SYBR Green I Master kit (Roche), per manufacturer's instructions. cDNA was analyzed using forward and reverse primers for Pdcd1, Tbx21, and Gapdh as a control, as described previously (10, 14). […]

The test system of the next data set is Tbx21 expression. In words: RT-qPCR of Tbx21 in anti-CD3 activated primary murine T-cells. The data set is classed as cell-based, C57BL/6 mouse. As to conditions: 10 μM, 72 hours, normalized against Gapdh. How it is done: as §1, §2, §3, §4
A further data set has as its system MC38 colon cancer. In words: MC38 syngeneic colon cancer model, subcutaneous tumor growth. The data set is classed as in vivo, C57BL/6 mice. The settings on record: MC38; three administrations; n=15 per group. How it is done:
Treatment was repeated every three days for a total of three administrations. Mice were sacrificed four days after the final treatment. The study was executed as two separate experiments, using animal group sizes of n=6 and n=9, respectively. […] The first set of analyses was performed on the tumor volume growth curves (FIG. 5, panel A), impact on final tumor volumes (FIG. 5, panel B) and tumor weight (FIG. 5, panel C) at the time of sacrifice.
MC38 cells, stably transfected with a luciferase vector, were inoculated into the right flank of C57BL/6 mice, using 0.7×10^6 cells in 40% Matrigel 1×PBS solution. Tumors were allowed to grow to a size of ˜50 mm^3 prior to the initiation of treatment, approximately 14 days after initial inoculation. Mice with outlier tumor sizes (either too small or too large) were excluded from further study. The remaining animals were randomly assigned to the different treatment groups. Mice were treated with three injections, set three days apart, and were sacrificed 4 days after the final treatment administration. […] Two separate experiments were performed, the first with n=6 mice per group and the second with n=9 animals.

In data set [3] the test system is CD8+ T-cells in MC38 tumors. Description: Flow cytometry of tumor-infiltrating CD8+ T-cells in MC38 tumors. The format is in vivo, C57BL/6 mice. From the text: In order to address the change in the immunological landscape with treatment, we asked whether sAZD1080 could impact the immune parameters that underpin treatment efficacy for immune checkpoint blocking antibodies. These include the CD8^+ cell number, the abundance of PD-1 expression on these cells, perforin release and the generation of cancer cell death, as reflected by activated caspase 3. For the first analysis, tumor cell digests were used to assess the number of CD8^+/CD107a^+/granzyme B^+ lymphocytes by flow cytometry (14, 30). […] In order to assess the status of PD-1 expression on CD8+ cells, flow cytometry was used to assess the % of […] cells in the tumor digests (14, 31).
Tumors were harvested from MC38 mice after sacrifice. Tumors larger than 100 mm^3 were divided in two, with one half preserved for histology and the other half used to conduct flow cytometry. To prepare samples for flow cytometry, tumor chunks of 2-3 mm^3 were incubated in an enzyme cocktail (1 mg/mL collagenase type IV, 2000 U DNase type IV, 0.1 mg/mL hyaluronidase type V in 1×HBSS) for 1 hour, and the digests passed through a 70 μm nylon filter. Cells were pelleted and washed in HBSS.
Cells were diluted in cell staining buffer, pelleted by centrifuging at 350×g for 5 minutes, and washed twice. […]

A further data set deals with T-bet. As to conditions: T-cells; literature (10, 13, 14); cited from earlier work.
[4] abbreviates: values provided by chemical vendors (Cayman Chemical, Selleck Chemicals).

Regarding `O=C1NC(=O)C(c2cnc3ccccn23)=C1c1cn2c3c(cc(F)cc13)CN(C(=O)N1CCCCC1)CC2` [LY2090314], the “encapsulation efficiency in silicasomes (in words)” value (“encapsulation efficiency” below) in data set [1] was “moderate efficiency”. Further, the IC50 in the data set with GSK3 (setting [4]) was 0.9 nM. Also, the “PK and bioavailability in clinical trial” value in data set [2] is “poor PK and drug bioavailability”. Turning to BIO-acetoxime, the concentration for half-maximal inhibition (IC50) with GSK3 (setting [4]) was 10 nM. In the case of `O=C1NC(=O)C(c2ccccc2[N+](=O)[O-])=C1Nc1ccc(O)c(Cl)c1` [SB415286], the “reduction in Pdcd1 mRNA expression” value in the data set with Pdcd1 expression is recorded as ~2.2 fold. Besides, the “Tbx21 mRNA expression” value in the data set on Tbx21 expression is listed as “increased”. In the data set with MC38 colon cancer, the “number of tumor-free animals at time of sacrifice (out of 15)” value is on record as 1/15. In addition, the “% of CD8/PD-1+ cells in the tumor digests” value in data set [3] is recorded as “did not impact”. For the same molecule, the “expression of T-bet” value with T-bet is “increase”. With `O=c1cc(-c2ccc(O)c(O)c2O)oc2ccccc12` [2-D08], the IC50 with GSK3 (setting [4]) is 11 nM. Consider CHIR98014, for which, in the data set with GSK3, the IC50 was 0.58 nM. Turning to Indirubin-3′-monoxime, the IC50 in the data set on GSK3 (setting [4]) was 22 nM.

For the molecule `Cc1[nH]c2ccccc2c1C1=C(NCCc2ccc(F)cc2)C(=O)N(C)C1=O` [IM-12], the IC50 with GSK3 (setting [4]) is 53 nM. Regarding `CN1CCN(S(=O)(=O)c2ccc(-c3cnc(N)c(C(=O)Nc4cccnc4)n3)cc2)CC1` [AZD2858], the “solubility during remote loading (in words)” value in data set [1] (dissolved in 0.9% saline, incubated with silicasome carrier, feed weight %) is given as “precipitated; also recorded: poor solubility”. Further, the “encapsulation efficiency” value in data set [1] was “moderate efficiency”. Consider `O=c1sn(-c2cccc3ccccc23)c(=O)n1Cc1ccccc1` [Tideglusib], for which the IC50 with GSK3 (setting [4]) is […]. As for `Nc1cccc(-c2cc3c(Oc4cccc(O)c4)ncnc3[nH]2)c1` [TWS119], the IC50 in the data set with GSK3 (setting [4]) was 40 nM. Regarding `O=C1Cc2c([nH]c3ccc(Br)cc23)-c2ncccc2N1` [1-Azakenpaullone], the “encapsulation efficiency” value in data set [1] is reported as “comparatively low”.
